{"source": "patent US4971967A", "about": "“Quinolinecarboxylic acid derivatives, antibacterial compositions and use” (Kanebo Ltd, priority 1989, dated 1990)", "key": {"[1]": {"system": "Staphylococcus aureus FDA 209P JC-1", "test": "Antibacterial activity (MIC), S. aureus FDA 209P JC-1", "type": "cell-based", "conditions": "FDA209P; Staphylococcus aureus FDA 209P JC-1, Gram +; read-out: Minimum inhibitory concentration (MIC)", "procedure": "(§1) The compounds of the present invention (A, C, D, E, F, G, H, I, J, L, O and P) and the known compound (X) as reference were dissolved in 0.1 N aqueous sodium hydroxide to prepare a solution of 5000 μg/ml in concentration. The compounds of the present invention (B, K, M and N) and the known compound (Y) were dissolved in sterilized distilled water to prepare a solution of 5000 μg/ml in concentration. Each solution was diluted with sterilized distilled water to prepare a standard solution with a concentration of each test compound: 1000 μg/ml. The test was carried out by a method as appointed by Japan Society of Chemotherapy [cf. Chemotherapy, 29, 76-79 (1981)(TOKYO)]."}, "[2]": {"system": "Staphylococcus aureus IID 803", "test": "Antibacterial activity (MIC), S. aureus IID 803", "type": "cell-based", "conditions": "IID803; Staphylococcus aureus IID 803, Gram +; read-out: Minimum inhibitory concentration (MIC)", "procedure": "as §1"}, "[3]": {"system": "Staphylococcus epidermidis IAM-1296", "test": "Antibacterial activity (MIC), S. epidermidis IAM-1296", "type": "cell-based", "conditions": "Staphylococcus epidermidis, IAM1296, Staphylococcus epidermidis IAM-1296, Gram +; read-out: Minimum inhibitory concentration (MIC)", "procedure": "as §1"}, "[4]": {"system": "Streptococcus faecalis IID 682", "test": "Antibacterial activity (MIC), Streptococcus faecalis IID 682", "type": "cell-based", "conditions": "Enterococcus faecalis, IID682, Streptococcus faecalis IID 682, Gram +; read-out: Minimum inhibitory concentration (MIC)", "procedure": "as §1"}, "[5]": {"system": "Bacillus subtilis ATCC 6633", "test": "Antibacterial activity (MIC), Bacillus subtilis ATCC 6633", "type": "cell-based", "conditions": "Bacillus subtilis, ATCC6633, Bacillus subtilis ATCC 6633, Gram +; read-out: Minimum inhibitory concentration (MIC)", "procedure": "as §1"}, "[6]": {"system": "Micrococcus luteus ATCC 9341", "test": "Antibacterial activity (MIC), Micrococcus luteus ATCC 9341", "type": "cell-based", "conditions": "ATCC9341; Micrococcus luteus ATCC 9341, Gram +; read-out: Minimum inhibitory concentration (MIC)", "procedure": "as §1"}, "[7]": {"system": "Escherichia coli NIHJ JC-2", "test": "Antibacterial activity (MIC), E. coli NIHJ JC-2", "type": "cell-based", "conditions": "NIHJJC2; Escherichia coli NIHJ JC-2, Gram -; read-out: Minimum inhibitory concentration (MIC)", "procedure": "as §1"}, "[8]": {"system": "Escherichia coli KC-14", "test": "Antibacterial activity (MIC), E. coli KC-14", "type": "cell-based", "conditions": "KC14; Escherichia coli KC-14, Gram -; read-out: Minimum inhibitory concentration (MIC)", "procedure": "as §1"}, "[9]": {"system": "Klebsiella pneumoniae PCI-602", "test": "Antibacterial activity (MIC), Klebsiella pneumoniae PCI-602", "type": "cell-based", "conditions": "PCI602; Klebsiella pneumoniae PCI-602, Gram -; read-out: Minimum inhibitory concentration (MIC)", "procedure": "as §1"}, "[10]": {"system": "Salmonella typhimurium IID 971", "test": "Antibacterial activity (MIC), Salmonella typhimurium IID 971", "type": "cell-based", "conditions": "Salmonella enterica; Salmonella typhimurium IID 971, Gram -; read-out: Minimum inhibitory concentration (MIC)", "procedure": "as §1"}, "[11]": {"system": "Shigella sonnei EW-33", "test": "Antibacterial activity (MIC), Shigella sonnei EW-33", "type": "cell-based", "conditions": "Shigella sonnei, EW33, Shigella sonnei EW-33, Gram -; read-out: Minimum inhibitory concentration (MIC)", "procedure": "as §1"}, "[12]": {"system": "Serratia marcescens IAM 1184", "test": "Antibacterial activity (MIC), Serratia marcescens IAM 1184", "type": "cell-based", "conditions": "Serratia marcescens, IAM1184, Serratia marcescens IAM 1184, Gram -; read-out: Minimum inhibitory concentration (MIC)", "procedure": "as §1"}, "[13]": {"system": "Pseudomonas aeruginosa IFO 3445", "test": "Antibacterial activity (MIC), P. aeruginosa IFO 3445", "type": "cell-based", "conditions": "Pseudomonas aeruginosa, IFO3445, Pseudomonas aeruginosa IFO 3445, Gram -; read-out: Minimum inhibitory concentration (MIC)", "procedure": "as §1"}, "[14]": {"system": "Pseudomonas aeruginosa NCTC 10490", "test": "Antibacterial activity (MIC), P. aeruginosa NCTC 10490", "type": "cell-based", "conditions": "Pseudomonas aeruginosa, NCTC10490, Pseudomonas aeruginosa NCTC 10490, Gram -; read-out: Minimum inhibitory concentration (MIC)", "procedure": "as §1"}, "[15]": {"system": "Pseudomonas aeruginosa E-2", "test": "Antibacterial activity (MIC), P. aeruginosa E-2", "type": "cell-based", "conditions": "E2; Pseudomonas aeruginosa E-2, Gram -; read-out: Minimum inhibitory concentration (MIC)", "procedure": "as §1"}, "[16]": {"system": "Morganella morganii IFO 3848", "test": "Antibacterial activity (MIC), Morganella morganii IFO 3848", "type": "cell-based", "conditions": "Morganella morganii, IFO3848, Morganella morganii IFO 3848, Gram -; read-out: Minimum inhibitory concentration (MIC)", "procedure": "as §1"}, "[17]": {"system": "Proteus vulgaris OX-19", "test": "Antibacterial activity (MIC), Proteus vulgaris OX-19", "type": "cell-based", "conditions": "OX19; Proteus vulgaris OX-19, Gram -; read-out: Minimum inhibitory concentration (MIC)", "procedure": "as §1"}, "[18]": {"system": "Proteus mirabilis IFO 3849", "test": "Antibacterial activity (MIC), Proteus mirabilis IFO 3849", "type": "cell-based", "conditions": "IFO3849; Proteus mirabilis IFO 3849, Gram -; read-out: Minimum inhibitory concentration (MIC)", "procedure": "as §1"}, "[19]": {"system": "Enterobacter aerogenes ATCC 13048", "test": "Antibacterial activity (MIC), Enterobacter aerogenes ATCC 13048", "type": "cell-based", "conditions": "Klebsiella aerogenes, ATCC13048; Enterobacter aerogenes ATCC 13048, Gram -; read-out: Minimum inhibitory concentration (MIC)", "procedure": "as §1"}, "[20]": {"system": "Enterobacter cloacae 963", "test": "Antibacterial activity (MIC), Enterobacter cloacae 963", "type": "cell-based", "conditions": "Enterobacter cloacae, 963, Enterobacter cloacae 963, Gram -; read-out: Minimum inhibitory concentration (MIC)", "procedure": "as §1"}, "[21]": {"system": "Citrobacter freundii NIHJ 10018-68", "test": "Antibacterial activity (MIC), Citrobacter freundii NIHJ 10018-68", "type": "cell-based", "conditions": "Citrobacter freundii, NIHJ10018, Citrobacter freundii NIHJ 10018-68, Gram -; read-out: Minimum inhibitory concentration (MIC)", "procedure": "as §1"}, "[22]": {"system": "Acinetobacter calcoaceticus AC 54", "test": "Antibacterial activity (MIC), Acinetobacter calcoaceticus AC 54", "type": "cell-based", "conditions": "AC54; Acinetobacter calcoaceticus AC 54, Gram -; read-out: Minimum inhibitory concentration (MIC)", "procedure": "as §1"}, "[23]": {"system": "clinically isolated methicillin resistant Staphylococcus aureus", "test": "MIC against clinically isolated methicillin resistant Staphylococcus aureus", "type": "cell-based", "conditions": "54 strains", "procedure": "The compounds (A) and (J) of the present invention and the known compound (X) were dissolved in 0.1 N aqueous sodium hydroxide, and the known compound (Y) in sterilized distilled water, to prepare a solution of 5000 μg/ml in concentration each. The above solutions were then diluted with sterilized distilled water to prepare a standard solution with a concentration of the test compound: 1000 μg/ml each. The test was carried out by a method appointed by Japan Society of Chemotherapy (ibidem) to measure minimum inhibitory concentration (MIC) against 54 strains of clinically isolated methicillin resistant Staphylococcus aureus, from which there were calculated a range of MIC (MICrange) of the test compound against these resistant strains, a minimum concentration for inhibiting the growth of the strains by 50% (MIC50) and a minimum concentration for inhibiting the growth of the strains by 90% (MIC90)."}, "[24]": {"system": "Staphylococcus aureus IID 803", "test": "Effect on treatment of general infectious disease, S. aureus IID 803 (Experiment 3)", "type": "in vivo, ddY male mice infected with Staphylococcus aureus", "conditions": "IID803, 168 h, oral, 1 h after i.p. infection, 5.0×10^7 CFU/mouse, survival after one week", "procedure": "Staphylococcus aureus IID 803 (5.0×10^7 CFU/mouse)\n(§2) The test microorganisms were subjected to standing culture in Trypto-Soya Agar \"Nissui\" (made by Nissui Seiyaku K.K., Japan) at 37° C. for 16 to 18 hours. The culture was then diluted with PBS (Dulbecco's phosphate buffered saline) and mixed with an equivalent amount of 10% (w/v) Mucin (BACTO MUCIN BACTERIOLOGICAL, made by Difco Co.) to prepare a microorganism solution. The thus prepared microorganism solution (0.5 ml each) was intraperitoneally inoculated to ddY male mice (5 weeks age, weighing 25-28 g, 5 mice in each group), to infect the animals. One hour after the infection, the compound (A) or (J) of the present invention or the known compound (X) suspended in 1% (w/v) aqueous gum arabic or the known compound (Y) dissolved in sterilized distilled water was orally adiministered to mice.\n(§3) The mice were daily observed for one week, and from the survival number of mice after one week, the 50% effective dose (ED50) was calculated by Weil method."}, "[25]": {"system": "Pseudomonas aeruginosa E-2", "test": "Effect on treatment of general infectious disease, P. aeruginosa E-2 (Experiment 3)", "type": "in vivo, ddY male mice infected with Pseudomonas aeruginosa", "conditions": "E2, 168 h, oral, 1 h after i.p. infection, 3.1×10^4 CFU/mouse, survival after one week", "procedure": "Pseudomonas aeruginosa E-2 (3.1×10^4 CFU/mouse)\nas §2, §3"}}, "data": [{"smiles": "CC1COc2c(N3CCN(C)CC3)c(F)cc3c(=O)c(C(=O)O)cn1c23", "note": "(stereo not drawn) [Compound (X), 9-Fluoro-3-methyl-10-(4-methyl-1-piperazinyl)-7-oxo-2,3-dihydro-7H-pyrido[1,2,3-de][1,4]-benzoxazine-6-carboxylic acid, reference compound]", "values": [{"measurement": "MIC", "setting": "[1]", "value": 0.39, "unit": "µg/mL"}, {"measurement": "MIC", "setting": "[2]", "value": 0.39, "unit": "µg/mL"}, {"measurement": "MIC", "setting": "[3]", "value": 0.78, "unit": "µg/mL"}, {"measurement": "MIC", "setting": "[4]", "value": 1.56, "unit": "µg/mL"}, {"measurement": "MIC", "setting": "[5]", "value": 0.1, "unit": "µg/mL"}, {"measurement": "MIC", "setting": "[6]", "value": 3.13, "unit": "µg/mL"}, {"measurement": "MIC", "setting": "[7]", "value": 0.1, "unit": "µg/mL"}, {"measurement": "MIC", "setting": "[8]", "value": 0.1, "unit": "µg/mL"}, {"measurement": "MIC", "setting": "[9]", "value": 0.05, "unit": "µg/mL"}, {"measurement": "MIC", "setting": "[10]", "value": 0.05, "unit": "µg/mL"}, {"measurement": "MIC", "setting": "[11]", "value": 0.05, "unit": "µg/mL"}, {"measurement": "MIC", "setting": "[12]", "value": 0.78, "unit": "µg/mL"}, {"measurement": "MIC", "setting": "[13]", "value": 1.56, "unit": "µg/mL"}, {"measurement": "MIC", "setting": "[14]", "value": 1.56, "unit": "µg/mL"}, {"measurement": "MIC", "setting": "[15]", "value": 1.56, "unit": "µg/mL"}, {"measurement": "MIC", "setting": "[16]", "value": 0.1, "unit": "µg/mL"}, {"measurement": "MIC", "setting": "[17]", "value": 0.05, "unit": "µg/mL"}, {"measurement": "MIC", "setting": "[18]", "value": 0.39, "unit": "µg/mL"}, {"measurement": "MIC", "setting": "[19]", "value": 0.1, "unit": "µg/mL"}, {"measurement": "MIC", "setting": "[20]", "value": 0.2, "unit": "µg/mL"}, {"measurement": "MIC", "setting": "[21]", "value": 0.39, "unit": "µg/mL"}, {"measurement": "MIC", "setting": "[22]", "value": 0.39, "unit": "µg/mL"}, {"measurement": "MIC", "setting": "[23]", "value": "0.39 to 1.56", "unit": "µg/mL"}, {"measurement": "MIC50", "setting": "[23]; minimum concentration for inhibiting growth of the strains by 50%", "value": 0.78, "unit": "µg/mL"}, {"measurement": "MIC90", "setting": "[23]; minimum concentration for inhibiting growth of the strains by 90%", "value": 1.56, "unit": "µg/mL"}, {"measurement": "ED50", "setting": "[24]", "value": 14, "unit": "mg/kg"}, {"measurement": "ED50", "setting": "[25]", "value": 14, "unit": "mg/kg"}]}]}
